Patent US10500198B2, “Bis-benzylidine piperidone proteasome inhibitor with anticancer activity” (The Johns Hopkins University, priority 2013, dated 2019)
“Also recorded” adds a separate entry of the source.

Experiments:
purified 20S proteasomes = purified 20S proteasomes (Homo sapiens, UniProt P28072+P28074+Q99436); assay: 20S proteolytic activity assay; type: biochemical; details: 1 μM; for chymotryptic activity of the 20S proteasome (Suc-LLVY-AMC): 30 min
Protocol: Actin was used as a loading control. […] In FIG. 9C-E, purified 20S proteasomes were treated for 30 min with or without compounds (1 μM) prior to the addition of the specific fluorogenic substrate for chymotryptic (9C), tryptic (9D) or PGPH (9E) hydrolytic proteasome capacities. […] DMSO was added to all samples to a final concentration of 0.1% (upper panel). The effect of DMSO is highlighted by including ubiquitin—AMC (0.5 μM) hydrolysis with 2 nM UCH37 lacking DMSO (orange, bottom panel). In FIG. 9H, purified 19S RP (500 nM) in buffer was treated with corresponding compounds 30 min at 37° C. and AMC cleavage was measured with a fluorometer for 20 min. Ubal was used as a positive control.
Release of free AMC by the enzyme reaction was determined by measuring its fluorescence at 380 nm (excitation) and 440 nm (emission). The graphs shown are representative of at least three independent determinations and each data point is the mean of ±SD of triplicate determinations.
20S proteasome cleaves the chymotryptic substrate and releases fluorescent AMC.

cancer cells = assay: Antiproliferative activity against cancer cells (design rationale); type: cell-based
Description: We used Chloro and Nitro functional groups as substituent's on the aromatic ring due to their greater electron withdrawing effect at ortho (or) para (or) meta (or) both positions along with different amino acid linkages on bis-benzylidine piperidone moiety. Amino acids were chosen based in their physical characteristics like very hydrophobic (phenylalanine), strongly basic and hydrophilic (lysine), basic and hydrophilic (histidine) and amphiphilic (glycine). Commercially available Fmoc and Boc protected amino acids were used in the synthesis, and they were evaluated for their antiproliferatory activity against cancer cells.
Next we synthesized another set of compounds by converting free amine functionality to its Acetate (Ac), Acrolyl (Acr) and Benzoyl […] analogs as these units are part of many anticancer drugs because of their smaller size and feasibility to form inter molecular hydrogen bonds with proteins.
In the RA195 molecule two amino functionalities of lysine can provide more flexibility to make better analogs.

RPN13 = molecular target: T1, RPN13 (Homo sapiens, UniProt Q16186); assay: Biotin labeling assay; type: binding; details: cell lysate or purified RP, streptavidin-peroxidase blot
T1 construct: endogenous in cells; host or cells: HeLa, HS578T cell lysate
Protocol: FIGS. 10 A-10E show a series of graphs and immunoblots showing the effects of several compounds on cell viability and proteasome activity. […] 10B and 10C show immunoblots of the proteasome activity of cell lines treated with the indicated compounds. […] IC50 values were determined in triplicate. In FIG. 10B, HeLa cells were treated for 12 hr and the cell lysate was subjected to immunoblot analysis with anti-Ubiquitin antibody. In FIG. 10C, SiHa cells were treated with the indicated compounds for 12 hr and the lysate subjected to Western blot analysis with anti-Ubiquitin antibody. HeLa cell lysate was treated with RA190B, subjected to SDS-PAGE, and probed with streptavidin-peroxidase following protein transfer to a polyvinylidene difluoride (PVDF) membrane. The streptavidin-peroxidase bound to biotinylated cellular proteins, but a striking new band at 42 kDa appeared in RA190B-treated samples (FIG. 2A). […] IC50 values were determined in triplicate.
To eliminate the possibility that another RP component was required for RA190B interaction, RPN13 or an irrelevant protein (L2) was overexpressed in bacteria. Cell lysate harvested from bacteria either with or without […] induction of ectopic protein expression was labeled with RA190B and probed by blotting with streptavidin-peroxidase. RA190B reacted strongly with a 42 kDa protein only in lysates of bacteria expressing RPN13 (FIG. 2D). […] 800 μL fractions were collected and alternate fractions (1,3,5,7,9,11,13,15,17) were analyzed for the presence of proteasomal proteins (RPN13, RPN2, RPN1 and UCH37) by Western blot analysis.
Human cells (5×10^6 HeLa or 293TT cells) were lysed using MPER (Pierce) lysis buffer (500 μL). RPN13 or HPV L2 transformed bacterial cells (500 μL of culture) were centrifuged to harvest the cells which were re-suspended in 500 μL BPER (Pierce). Cell lysates were centrifuged at 10,000 rpm briefly (2 min) at 4° C. to remove cell debris. Lysate supernatant (200 μL) was pre cleared with streptavidin dyna beads (20 μL) for 1 h at 4° C. to remove non-specific biotin binding and incubated with compounds (indicated concentrations or 20 μM) at 4° C. for 1 hr. An equal amount of each sample (20 μL of lysate) was mixed with an equal volume of Laemmli sample buffer (20 μL) (BioRad) and was boiled for 5 min. […] (24 V). Membrane was blocked with 5% BSA in PBST for 1 hr at room temperature and washed for 20 min (3×PBST). Then the membrane was probed with HRP-streptavidin (1:10,000 in PBST) for 1 hr at room temperature and washed for 30 min (3×PBST) and developed using HyGLO chemiluminescent detection reagent (Denville) for biotin recognition. For the purified enzyme assay, 19S purified proteasome (R&D Systems, Cat. No. E-366) (500 ng) in 19S buffer (20 mM HEPES, 20 mM NaCl, 1 mM DTT, 15% Glycerol) was incubated with compounds (20 μM) for 1 hr at room temperature and mixed with an equal volume of Laemmli sample buffer (20 μL) (BioRad) and was boiled for 5 min. Each sample was loaded onto gel and followed the western blot protocol mentioned above.
Purified 19S proteasome (500 ng) was incubated with corresponding compounds for 30 min and subjected to immunoblot and probed with HRP-conjugated streptavidin. In FIG. 23, the single band at 42 KDa indicates Rpn13 binding to 195. RA183B (20 μM) is used as positive control for Rpn13 binding. Competition experiments were done with RA183 (100 μM) and RA195 (100 μM) along with RA195B (20 μM).

T1 sequence (Q16186 whole entry): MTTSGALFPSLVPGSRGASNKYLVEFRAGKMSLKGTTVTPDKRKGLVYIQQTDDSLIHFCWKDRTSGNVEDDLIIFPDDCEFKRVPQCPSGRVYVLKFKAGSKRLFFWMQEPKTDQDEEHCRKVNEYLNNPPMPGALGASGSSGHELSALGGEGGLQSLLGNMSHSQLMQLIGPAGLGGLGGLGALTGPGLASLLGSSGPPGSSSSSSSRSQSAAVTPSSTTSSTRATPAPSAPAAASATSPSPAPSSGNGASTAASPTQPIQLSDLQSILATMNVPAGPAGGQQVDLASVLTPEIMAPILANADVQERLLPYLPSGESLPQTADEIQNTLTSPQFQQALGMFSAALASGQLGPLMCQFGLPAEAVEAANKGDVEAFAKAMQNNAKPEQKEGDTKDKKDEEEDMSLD

SMILES	chymotryptic activity of the 20S proteasome (Suc-LLVY-AMC) (purified 20S proteasomes)	CP chymotryptic, tryptic, and PGPH activities (purified 20S proteasomes; 30 min pre-treatment)	antiproliferative potency among analogs (cancer cells)	labeling of / competition for RPN13 (42 kDa band) (RPN13)
Cl.N[C@@H](Cc1ccccc1)C(=O)N1CC(=Cc2ccc(Cl)c(Cl)c2)C(=O)C(=Cc2ccc(Cl)c(Cl)c2)C1 [RA190, 3,5-bis(3,4-dichlorobenzylidene)-1-(S-2-amino-3-phenyl)-piperidin-4-one-HCl salt]	do not	does not inhibit	higher potency	competitive; also recorded: covalently binds directly to RPN13
Cl.NCCCC[C@H](NC(=O)OCC1c2ccccc2-c2ccccc21)C(=O)N1C/C(=C\c2ccc(Cl)c(Cl)c2)C(=O)/C(=C/c2ccc(Cl)c(Cl)c2)C1 [RA195]	do not	–	higher potency	binds covalently to RPN13
